Consider eight compounds from patent publication US5814627A, “3, 5-disubstituted and 3, 4, 5-trisubstituted 2-isoxazolines and isoxazoles, process for their preparation and their use as pharmaceuticals” (Hoechst Aktienegesellschaft, priority 1994, dated 1998).

In assay [1] the test system is TNFα release from mononuclear cells. Kind of assay: Test 4: cytokine release from LPS-stimulated mononuclear cells, TNFα. The settings on record: Homo sapiens, read-out: Test 4 residual activity (TNFα release), percent of control. It is filed as cell-based. The procedure:
(§1) Test 4. Stimulation of the cytokine release
(§2) Isolation of mononuclear cells from human blood
(§3) 10 ml of human blood, stabilized with 1 ml of 3.8% sodium citrate solution, were diluted with 10 ml of PM16 (Serva, Heidelberg) and underlaid with 15 ml of Lymphoprep (Dr. Molter GmbH, Heidelberg). The samples were centrifuged, at room temperature for 40 minutes, at 400×g (1600 rpm, Minifuge 2, Heraeus, Osterode). The mononuclear cells are visible as a white ring at the Lymphoprep/plasma interface. This ring was carefully removed with a syringe, diluted with an equal volume of PM16, and centrifuged for 10 minutes at 400×g. The sediment was washed with approximately 10 ml of RPMI1640 (+300 mg/l L-glutamine, Gibco, Eggenstein) (Wallis, 1986). After the cells had been resuspended in approximately 1 ml of RPMI1640 (+300 mg/l L-glutamine+25 mM HEPES+100 μg/ml streptomycin+100 μg/ml penicillin), the cell density was determined using a Coulter Counter JT (Coulter Diagnostics) and adjusted to 5*10^6 /ml. Typically, the cells are composed of 90% lymphocytes and 10% monocytes.
(§4) 230 μl of mononuclear cells were incubated, at 37° C.; 5% CO2 for 20-22 hours (5 hours in the case of IL-6), with 10 μl of test substance (10 μM in DMSO/water, 1/10) and 10 μl of lipopolysaccharide (LPS; 500 μg dissolved in 1 ml of DMSO and diluted 1/10 with water prior to beginning the test; from Salmonella abortus equi, Sigma, Deisenhofen). The samples were cooled down to 0° C. in an ice bath and centrifuged in a Sigma centrifuge (2 minutes; 2000 rpm). Aliquots of the supernatant are measured with an ELISA (Biermann, Bad Nauheim). The abbreviation IL stands for interleukin and TNF for tumor necrosis factor alpha.
(§5) The values in the table show the concentration of the test substance which was employed in μM and, besides this, the residual activity measured in percent based on the control, which was set to be 100%. The interleukin is additionally indicated in test 4.

The subject of assay [2] is leukotriene B4 synthesis in white blood cells. Kind of assay: Test 3: LTB4 formation by white blood cells. Type of assay: cell-based. The following applies: Homo sapiens, read-out: Test 3 residual activity (LTB4 formation), percent of control. The procedure: TEST 3. LTB4 formation by white blood cells
Isolation of white blood cells:
40 ml of human blood were mixed with 8 ml of 6% dextran solution (dextran, mw: 480,000 in PM16). After one hour at room temperature, the supernatant,which was composed of white blood cells, was removed, diluted with an equal volume of PM16, and centrifuged for 15 minutes at 300×g (1600 rpm). The sediment was next resuspended in approximately 5-6 ml of PM16 and, once the cell count had been determined in a Coulter Counter, adjusted to 10^7 cells/ml.
The test mixture comprised 0.24 ml of cell suspension, 0.03 ml of 20 mM CaCl2 /5 mM MgCl2 and 5 μl of test substance. Following 15 minutes of preincubation at 37° C., the reaction was started with 0.03 ml of A23187/glutathione (100 μg of A23187/ml; 15.4 μg of glutathione/ml). The incubation was terminated after 5 minutes at 37° C. by immediate cooling of the samples down to 0° C. After centrifuging for 2 minutes in an Eppendorff Centrifuge (0° C.), the supernatant was removed and examined chromatographically.
High pressure liquid chromatography (HPLC): the HPLC equipment comprises a Kratos pump (Spectro-flow 400), a cooled automatic BT 7041 sample injector (Biotronik) having a 75 μl sample loop, a Nucleosil C18 column (100*3 mm, 5 μm particles of Chrompack), a UV detector (Kratos) Spectroflow 757 (wavelength: 280 nm, measurement range: 0.1 AUFS, time constant: 0.5 s) and a Spectra Physics integrator (SP 4270). The eluent (725 ml of methanol, 275 ml of water and 0.1 ml of acetic acid) was supplied at a flow rate of 0.7 ml/minute and at a pressure of about 100 bar.
When doing this, the measurement range which has been set can be examined and altered if necessary. It is also vital to measure the test substances at the particular test concentration (e.g.: 10^-5 M) in PM16 before the cell incubation, since the test substances might conceal the LTB4 peak. If this is the case, a lower concentration must be selected.
as §5

Assay [3] has as its system cyclooxygenase-dependent thrombocyte aggregation. Kind of assay: Test 5: Cyclooxygenase-dependent thrombocyte aggregation. The settings on record: Homo sapiens, arachidonic acid as inducer, read-out: Test 5 residual activity (cyclooxygenase-dependent thrombocyte aggregation), percent of control. It is filed as cell-based, human. Summed up: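 Citrated human platelet-rich plasma was preincubated 10 min at 37 °C with test substance diluted 1:30 in 50 mM Tris-HCl pH 8.0, 90 mM NaCl. Aggregation was triggered with arachidonic acid (5 mg/ml, 20 μl) under 800 rpm stirring in an aggregometer. Values are tested concentration (μM) and residual activity as % of control.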

In assay [4] the test system is IL-1β release from mononuclear cells. Put plainly: Test 4: cytokine release from LPS-stimulated mononuclear cells, IL-1β. It is filed as cell-based. The following applies: Homo sapiens, read-out: Test 4 residual activity (IL-1β release), percent of control. As to the method:
as §1, §2, §3, §4, §5

The test system of assay [5] is IL-1α release from mononuclear cells. Put plainly: Test 4: cytokine release from LPS-stimulated mononuclear cells, IL-1α. The following applies: Homo sapiens, read-out: Test 4 residual activity (IL-1α release), percent of control. Type of assay: cell-based. As to the method:
as §1, §2, §3
230 μl of mononuclear cells were incubated, at 37° C.; 5% CO2 for 20-22 hours (5 hours in the case of IL-6), with 10 μl of test substance ([…]) and 10 μl of lipopolysaccharide (LPS; 500 μg dissolved in 1 ml of DMSO and diluted 1/10 with water prior to beginning the test; from Salmonella abortus equi, Sigma, Deisenhofen). The samples were cooled down to 0° C. in an ice bath and centrifuged in a Sigma centrifuge (2 minutes; 2000 rpm). Aliquots of the supernatant are measured with an ELISA (Biermann, Bad Nauheim). The abbreviation IL stands for interleukin and TNF for tumor necrosis factor alpha.
as §5

The subject of assay [6] is IL-1 release from mononuclear cells. Kind of assay: Test 4: cytokine release from LPS-stimulated mononuclear cells, IL-1. It is filed as cell-based. The following applies: Homo sapiens. The procedure: as §1, §2, §3, §4, §5
Assay [7] relates to tumor cell line 20-10-5S (hybridoma cell line). Kind of assay: Test 8: Inhibition of tumor cell proliferation. Type of assay: cell-based. The settings on record: 48 h + 16 h tritiated thymidine incorporation; 20-10-5S cells. In general terms: Dividing cells build labelled thymidine or BrdU into new DNA.
Method: The tumor cell line 20-10-5S (hybridoma cell line, supplied by ATCC (American Type Culture Collection)), which produces an antibody against mouse T cells) was used for determining the antiproliferative property of test substances. The cells were cultured, at 37° C. and 5% C2, under serum-free conditions in CG medium (cell-growth medium=Iscove-ATL (+albumin+transferrin+lipids); from Vitromex, Vilshofen). Only cells which were in the logarithmic phase of growth were used for the test mixture. The test substances were pipetted in various concentrations (from 1 to 50 μM), together with 4×10^3 20-10-5S cells, into round-bottomedmicrotiter plates (total volume with medium, 200 μl). After an incubation time of 48 h (37° C. and 5% CO2), 25 μl of tritiated thymidine (=0.25 μCi/test mixture, specific activity, 23 Ci/mM) were added to the plates. During the subsequent 16 h, the radioactively labeled thymidine was incorporated into the DNA of the growing cells. The samples were filtered off with suction on glass fiber filters and the incorporated radioactivity was measured using a β counter (Beta Plate System 1205 from Wallac).
The test system of assay [8] is adjuvant/arthritis model. Put plainly: Test 6: antiarthritic effect in the adjuvant/arthritis model. It is filed as in vivo, rat (Wistar-Lewis). The settings on record: Rattus norvegicus, po, 408 h, 50 mg/kg orally, daily for 17 days; rat; read-out: Test 6 Paw volume (% inhibition).
Method: Male rats of a Wistar-Lewis strain (Mollegaard/Denmark) were used as experimental animals. The body weight is between 160 and 200 g. Subplantar injection of 0.1 ml of Freund's adjuvant (=6 mg of Mycobacterium butyricum suspension, Difco Lab./Detroit, Mich. USA, per ml of heavy white paraffin oil, Merck, Darmstadt) into the root of the tail resulted, on the 10th to 14th day of the experiment, in immunopathological processes and chronic inflammations, particularly in the form of arthritic and periarthritic symptoms, at other sites in the body (secondary lesions). The animals were fed ad libitum with the standard feed Altromin-R, from Altrogge, Lage, and provided with tap water. The animals were given 60 mg of codein per kg as an analgesic from the 14th day to the end of the experiment. The test substances were administered orally as a CMC suspension, in an injection volume of 1 ml/100 g of body weight, on each day (in all for 17 days), beginning on the day of the adjuvant administration. The volumes of each of the hind paws, and the body weight, were measured on the first and on the 18th day of the experiment. Diminution in the increase of paw volume, as compared with the untreated control group, served as the criterion of activity, with the two hind paws being averaged.
Assay [9] deals with polymorphonuclear leucocytes (PMNL). Kind of assay: Test 1: Release of proteolytic activity from human PMNL. Type of assay: cell-based. The following applies: Homo sapiens, PMNL, read-out: Test 1 residual activity (release of proteolytic activity), percent of control. Summed up:
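Human peripheral-blood PMNL (5·10^6 cells/ml in PBS with 7.5 mM glucose) preincubated 20 min at 37° C. with compound, then primed with cytochalasin B (5 μg/ml) and TNF (30 ng/ml), and stimulated with fMLP (10 nmol/l) for 60 min. Released protease in supernatant read with methoxysuccinyl-nitroanilide substrate at 405 nm over 0-60 min, pH 7.5.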

The test system of assay [10] is PAF-induced asthma attack. Put plainly: Test 7: antiasthmatic effect, PAF-induced asthma attack. Type of assay: in vivo. The following applies: Cavia porcellus; i.d., 15 minutes before PAF; guinea pig. Summed up:
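Anesthetized guinea pigs given PAF through a jugular vein cannula; test compounds dosed i.v. through the same cannula 5 min before PAF, or intraduodenally via surgical cannula 15 min before. Bronchial width recorded by overflow pneumonogram before and after dosing; ED50 in mg/kg i.d. against the PAF-induced attack.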

[11] abbreviates: IL-1, read-out: Test 4 residual activity (IL-1 release), percent of control.

Read-outs that look alike come from different tables or passages of the source.

On to `CC(C)(C)c1cc(C2=NOC(c3ccncc3)C2)cc(C(C)(C)C)c1O` (stereo not shown) [Example 10], for which, in assay [1], the activity at 10 µM came to 78%. For the same compound, in [2], the activity at 1 µM stood at 89% and the activity at 10 µM turned out to be 20%. Besides, the activity at 100 µM in assay [3] was 98%.

As for `CC(C)(OCc1cc(-c2cc(C(C)(C)C)c(O)c(C(C)(C)C)c2)no1)C(=O)Nc1nnn[nH]1` [Example 38, 2-(3-(4-Hydroxy-3,5-di-tert-butylphenyl)isoxazol-5-ylmethoxy)-N-(1H-tetrazol-5-yl)isobutyramide], the activity at 1 µM in [4] came out at 85%; in assay [5] it was 89%. In addition, in [3], the activity at 100 µM worked out at 90%.

With `CC(C)(C)c1cc(-c2cc(CO)on2)cc(C(C)(C)C)c1O` [Example 24], the results for the activity at 10 µM in assay [6] (setting [11]) and in [3] were 86% and 94%, respectively. Also, the IC50 in assay [7] is < 5 µM. The inhibition in vivo at 50 mg/kg in assay [8] was found to be 43%.

Consider `CC(C)(C)c1cc(-c2cc(CCC(=O)Nc3nnn[nH]3)on2)cc(C(C)(C)C)c1O` [Example 46, 3-(3-(4-Hydroxy-3,5-di-tert-butylphenyl)isoxazol-5-yl)-N-(1H-tetrazol-5-yl)propionamide], for which the activity at 10 µM in [1] was determined as 79%. For the same compound, the activity at 1 µM in [4] amounted to 85%; in [5] it was 77%. In addition, the activity at 100 µM in [3] amounted to 90%.

In the case of `CC(C)(C)c1cc(C2CC(CCC(=O)Nc3nnn[nH]3)=NO2)cc(C(C)(C)C)c1O` (stereo not shown) [Example 64, 5-(4-Hydroxy-3,5-di-tert-butyl)phenyl-2-isoxazoline-3-propionic acid-N-(1H-tetrazol-5-yl)amide], the activity at 10 µM in assay [9] came out at 96%; in assay [6] (IL-1 (second entry), read-out: Test 4 residual activity (IL-1 release, second IL-1 entry of Ex. 64), percent of control) it was 82%; in assay [6] (setting [11]), 68%. Also, the activity at 100 µM in [9] was 72%; in assay [3], 97%. In assay [6] (IL-1, 1 μM, read-out: Test 4 residual activity (IL-1 release), percent of control), the activity at 1 µM was 85%.

On to `CC(C)(C)c1cc(-c2cc(/C=C/C(=O)O)on2)cc(C(C)(C)C)c1O` [Example 47, 3-(4-Hydroxy-3,5-di-tert-butylphenyl)isoxazol-5-ylacrylic acid], for which the activity at 1 µM in assay [9] (1 μM) is 85%; in assay [5] it was 89%. The activity at 10 µM was 38% in [9], 64% in assay [1] and 72% in assay [5]. For the same compound, in assay [9], the activity at 100 µM worked out at 17%. For the same compound, the ED50 in [10] fell in the range of 10 to 50 mg/kg. Besides, in assay [7], the IC50 was 5 to 10 µM.

Take `CC(C)(C)c1cc(C2CC(c3nccs3)=NO2)cc(C(C)(C)C)c1O` (stereo not shown) [Example 61, 3-(2-Thiazolyl)-5-(4-hydroxy-3,5-di-tert-butylphenyl)-2-isoxazoline]: the activity at 100 µM stood at 80% in assay [9] and 94% in assay [3]. For the same compound, the activity at 10 µM amounted to 68% in [1] and 3% in [2]. Also, in [5], the activity at 1 µM worked out at 94%.

For the compound `CC(C)(C)c1cc(-c2cc(CCO)on2)cc(C(C)(C)C)c1O` [Example 25], the ED50 in [10] fell in the range of 3 to 10 mg/kg. For the same compound, the activity at 10 µM in assay [1] amounted to 82%; in assay [2], 29%; in assay [4] (10 μM), 93%; in [5], 62%; in assay [3] it was 86%. Moreover, the IC50 in [7] is < 5 µM. Besides, the activity at 1 µM in assay [2] turned out to be 85%. Moreover, the inhibition in vivo at 50 mg/kg in assay [8] was 44%.

The term IC50 denotes the concentration needed to halve the response being measured. In general, ED50 refers to the midpoint of the dose-response relation. Lower therefore signals an effect at a small dose.
